# Experimental data as given in patent publication US20140243403A1, “TREATING COLORECTAL, PANCREATIC, AND LUNG CANCER” (The General Hospital Corporation, priority 2011, published 2014).
# Legend:
# [1] = system: TOP-FLASH reporter in YAPC cells; assay: TOP-FLASH reporter in YAPC PDAC cells; assay type: cell-based; conditions: KRAS-dependent YAPC cells
# Description: (§1) (E) TOP-FLASH reporter activity in KRAS mutant PDAC cell lines following inhibition of GSK-3 kinase with increasing concentrations of the small molecule inhibitor BIO. PANC-1 are KRAS-independent cells and YAPC are KRAS-dependent cells. Luminescence counts (photons/sec) are plotted on the y-axis. Data are representative of three independent experiments+/−SEM.
# (§2) (F) TOP-FLASH reporter dose-response relationships in PANC-1 and YAPC cells following combined treatment with GSK-3 and TAK1 inhibitors (BIO and 5Z-7-Oxozeaenok respectively). Luminescence counts (photons/sec) are plotted on the y-axis. Data are represented as the means of triplicates+/−SEM.
# (§3) To further test the role of Wnt signaling in this context, experiments were performed using two KRAS mutant pancreatic cancer (PDAC) cell lines, PANC-1 and YAPC, which are APC wild-type. PANC-1 cells are KRAS-independent, whereas YAPC cells are KRAS-dependent, a distinction that has been linked to increased KRAS signaling in YAPC cells (Singh et al., 2009). […] In contrast, PANC-1 cells undergo stronger induction of TOP-FLASH activity with combined GSK-3 and TAK1 inhibition (FIG. 11F, […]). […] Finally, a constitutively-activated mutant of β-catenin (CTNNB1-CA) containing S33Y and S45A missense mutations was introduced into KRAS-dependent SW620 cells. This mutant caused partial losses in both KRAS and TAK1 dependencies (FIGS. 13A-C). […]
# [2] = system: TOP-FLASH reporter in PANC-1 cells; assay: TOP-FLASH reporter in PANC-1 PDAC cells; assay type: cell-based; conditions: KRAS-independent PANC-1 cells
# Description: as §1, §2, §3
smiles,measurement,setting,value
O=C1Nc2cc(Br)ccc2/C1=C1/Nc2ccccc2/C1=N\O [BIO],TOP-FLASH reporter induction,[1],"strong, dose-dependent TOP-FLASH reporter induction"
same,TOP-FLASH reporter induction,[2],weak induction
